Test results: PubChem BioAssay AID1996
≈ marks a conversion by molar mass, not a printed value.

settings: buffer; pH 7.4; 200.0 µM

solubility kinetic [µg/mL]	Structure (SMILES)
> 42.2	CCOC(=O)c1cn(CC)c2cc(F)c(F)cc2c1=O
3 (≈ 8.9 µM)	O=C(NC(=S)Nc1ccc(Br)cn1)c1cccnc1
18 (≈ 51.1 µM)	COc1ccc(/C=C/C(=O)N(C)C2CCCCC2)cc1Br
38.4 (≈ 148 µM)	O=[N+]([O-])c1cccc2ccc(N3CCOCC3)nc12
36.6 (≈ 142 µM)	N#Cc1ccccc1CSc1nc(N)cc(N)n1
> 49.5	O=C(COC(=O)c1c(Cl)cccc1Cl)NC1CCCCC1
> 51.8	Cc1cc(=O)[nH]c(SCC(=O)NC(C)C2CC3CCC2C3)c1C#N (stereo unspecified)
27.9 (≈ 113 µM)	CC1CN(Cc2cnc(Cl)s2)CC(C)O1 (stereo unspecified)
< 0.4	Cc1nc(-c2ccccc2)[nH]c(=O)c1Oc1ccc(Cl)cc1Cl
> 32.4	CCC(CC)c1nc2ccccc2c(=O)[nH]1
7 (≈ 16.3 µM)	CCN(CC(=O)Nc1ccc2c(c1)OCCO2)CC(=O)Nc1ccc(C)c([N+](=O)[O-])c1
> 55.9	O=C(Cn1c2ccc(F)cc2c2nc3n(c(=O)c21)CCS3)N1CCCC1
31.9 (≈ 107 µM)	O=C(Nc1ccccc1)Oc1ccccc1N1CCOCC1
18.3 (≈ 83.5 µM)	O=C(NC1CCCCC1)Oc1ccccc1
3.7 (≈ 10.3 µM)	O=C(NC1CCN(C(=O)Nc2ccc(F)cc2)CC1)c1ccc(F)cc1
> 32.7	COCCn1c(C(C)C)nc2ccccc21
11 (≈ 23.1 µM)	COC(=O)c1ccc(COC(=O)C2CCN(S(=O)(=O)c3ccccc3C(=O)OC)CC2)cc1
> 48.4	CCCCN(C)c1c(N2CCC(C(=O)OCC)CC2)c(=O)c1=O
> 39.5	O=C(Cc1cccs1)NCCc1ccc(F)cc1
> 47	Cc1c(C)n(C)c2ccc(C(=O)NCCCN3CCCC3)cc12

solubility kinetic [µg/mL]	Structure (SMILES)
> 38.3	CC(NC(=O)OCc1ccccc1)c1ccccc1 (stereo unspecified)
18.7 (≈ 61.8 µM)	CCc1cccc(CC)c1NC(=O)CNCc1cccs1
> 35.3	CCCc1nc2c(=O)n(C)c(=O)nc-2n(C)n1
5.9 (≈ 20.1 µM)	O=C(COC(=O)CCC1CCCC1)Nc1ccc(F)cc1
36.2 (≈ 100 µM)	COc1cc(/C=C/C(=O)OCC(=O)NC2CCCCCCC2)ccc1O
> 53.8	Cc1ccc(NS(=O)(=O)c2cccc(C(=O)N3CCCCC3)c2)cc1
29.5 (≈ 90.9 µM)	CCOC(=O)/C(C(=Nc1ccccc1)Nc1ccccc1)=C(\C)O
22.7 (≈ 66.5 µM)	COc1cccc(N2CC(C)Cn3c2nc2c3c(=O)[nH]c(=O)n2C)c1 (stereo unspecified)
8.1 (≈ 29.6 µM)	COc1ccc(C(=O)NC(C)C2CC3CCC2C3)cc1 (stereo unspecified)
> 36	Cc1ccc(CC(=O)Nc2cc(C)ccn2)cc1
25.2 (≈ 76.7 µM)	O=C(CNC(=O)c1ccccc1)NCCCSc1ccccc1
44.5 (≈ 141 µM)	O=C(Cc1ccc(Cl)cc1)N1CCN(c2ccccc2)CC1
39.5 (≈ 141 µM)	S=C(NCc1ccc(Cl)cc1)NCc1ccco1
2.8 (≈ 8.91 µM)	O=C(NC1CCCCC1)c1ccc(-c2cccc([N+](=O)[O-])c2)o1
30.7 (≈ 116 µM)	CCN(Cc1nc2ccccc2n1C)c1ccccc1
33.2 (≈ 97.8 µM)	Cc1c(C(=O)N2CCN(c3ccccn3)CC2)oc2c(F)cccc12
19.7 (≈ 63.1 µM)	Fc1ccc(Br)cc1SCCc1ccncc1
3.4 (≈ 12.4 µM)	COc1ccc(NC(=O)Nc2cnccn2)c(OC)c1
1.3 (≈ 2.68 µM)	CCOc1ccc(N2CC(C(=O)Nc3cc(S(=O)(=O)N4CCCCC4)ccc3C)CC2=O)cc1 (stereo unspecified)
> 44	Cc1ccc2[nH]c(=O)c(CC(=O)O)c(-c3ccccc3)c2c1

solubility kinetic [µg/mL]	Structure (SMILES)
> 52.5	O=C(COc1ccc2cc(Br)ccc2c1)N1CCOCC1
42 (≈ 141 µM)	Cc1ccc(-c2nc(CNC(=O)c3ccco3)cs2)cc1
5.7 (≈ 21.5 µM)	CSc1ncccc1C(=O)Nc1ncc(C)s1
> 46.1	O=C(COC(=O)c1cc(=O)[nH]c(=O)[nH]1)Nc1ccccc1F
> 47.3	O=C(CNC(=O)c1ccco1)N/N=C/c1ccc(C(=O)O)cc1
7.9 (≈ 23.8 µM)	O=c1c2ccccc2nc(-c2ccco2)n1CCc1ccc(O)cc1
45.7 (≈ 135 µM)	CC1SC(C)C(=O)N(CC(=O)Nc2ccc([N+](=O)[O-])cc2)C1=O (stereo unspecified)
> 32.7	CN(C(=O)c1ccncc1)C1CCCCC1
36.9 (≈ 136 µM)	CCc1ccc(NC(=S)NCc2cccnc2)cc1
> 42.8	Cc1nnc(SCC(=O)N(C)C2CCCCC2)s1
41.3 (≈ 119 µM)	COc1ccc(CCC(=O)Nc2nc(C)c(C(=O)N(C)C)s2)cc1
> 42.4	CCN(CC(=O)NC1CC1)S(=O)(=O)c1ccccc1
> 45.4	COC(=O)CC1C(=O)NC2CCCCC2N1C(=O)CCl (stereo unspecified)
3.8 (≈ 14 µM)	COc1ccc(NC(=O)c2ccc3c(c2)OCO3)cc1
> 36.9	CSC1=NC2(C[C@H]2c2ccccc2)C(=O)N1C (stereo partly specified)
> 52.6	COc1ccccc1-c1c(NC(=O)C(C)C)n(C)c2ccccc2c1=O
5.1 (≈ 16.8 µM)	O=C(c1cc2ccccc2o1)N1CC=C(c2ccccc2)CC1
> 41.7	S=c1[nH]nc(-c2ccco2)n1-c1ccc(Cl)cc1
13.1 (≈ 36.4 µM)	Cc1ccc(C2NC(=NCc3ccccc3)Nc3nc(C)cc(=O)n32)cc1 (stereo unspecified)

Structure (SMILES)	solubility kinetic [µg/mL]
COc1ccc(OC)c(NC2=NCCS2)c1	> 35.7
Cl.O=[N+]([O-])c1ccc(N2CCCNCC2)c2ncccc12	36.7
